In US6436981B1 (dated 2002) one finds melting point data, which are given here for two compounds.

`CON=C(C(C)=NN=Cc1ccccc1-n1c(OC)nn(C)c1=O)c1cccc(C(F)(F)F)c1`: the melting point fell in the range of 157 to 161 °C. In the case of `CO/N=C(C)/C(=N/N=C/c1ccccc1-n1c(OC)nn(C)c1=O)C1CC1` it was 146 to 148 °C.

What is called melting point is the temperature of the solid-liquid transition.
